Measurements from ChEMBL document CHEMBL1144675, “Stereospecific synthesis and bio-activity of novel beta(3)-adrenoceptor agonists and inverse agonists” (Bioorg Med Chem, 2008).
Calls of active or inactive are those of the source. The rule behind the calls is not given here.

Assays:
[1] = molecular target: T1, Beta-3 adrenergic receptor (Homo sapiens, UniProt P13945); experiment: Agonist activity at human adrenergic beta-3 receptor expressed in CHO cells assessed as cAMP levels by DELFIA method; format: functional, cell-based
T1 sequence (P13945 whole entry): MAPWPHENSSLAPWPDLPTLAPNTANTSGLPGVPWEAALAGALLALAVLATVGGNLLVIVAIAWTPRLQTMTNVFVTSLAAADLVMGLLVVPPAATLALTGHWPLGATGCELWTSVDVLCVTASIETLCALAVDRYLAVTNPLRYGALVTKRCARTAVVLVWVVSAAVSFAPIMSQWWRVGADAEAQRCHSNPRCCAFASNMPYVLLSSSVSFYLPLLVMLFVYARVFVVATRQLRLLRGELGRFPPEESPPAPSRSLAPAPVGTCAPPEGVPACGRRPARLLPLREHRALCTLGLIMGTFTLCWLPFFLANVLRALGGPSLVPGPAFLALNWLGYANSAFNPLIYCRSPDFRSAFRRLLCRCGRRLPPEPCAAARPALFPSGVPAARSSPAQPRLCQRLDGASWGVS

[2] = molecular target: Beta-3 adrenergic receptor (Rattus norvegicus) (UniProt P26255); experiment: Antagonist activity at adrenergic beta-3 receptor in rat proximal colon assessed as colon motility; format: functional, tissue-based
Beta-3 adrenergic receptor (Rattus norvegicus), sequence (P26255 whole entry): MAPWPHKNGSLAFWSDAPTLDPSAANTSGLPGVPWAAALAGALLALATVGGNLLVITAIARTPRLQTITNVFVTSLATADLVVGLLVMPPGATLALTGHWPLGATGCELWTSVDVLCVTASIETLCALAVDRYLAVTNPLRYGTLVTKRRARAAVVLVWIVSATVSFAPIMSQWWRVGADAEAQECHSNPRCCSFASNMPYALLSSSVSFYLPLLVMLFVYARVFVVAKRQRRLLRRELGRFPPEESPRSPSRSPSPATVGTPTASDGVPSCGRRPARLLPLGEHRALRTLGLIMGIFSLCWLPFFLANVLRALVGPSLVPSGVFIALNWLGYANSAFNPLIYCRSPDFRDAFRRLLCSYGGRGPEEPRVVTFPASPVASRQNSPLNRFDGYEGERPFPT

[3] = molecular target: Beta-1 adrenergic receptor (Homo sapiens) (UniProt P08588); experiment: Displacement of [3H]dihydroalprenolol from human adrenergic beta-1 receptor expressed in CHO cells at 10 uM; format: cell-based
Beta-1 adrenergic receptor (Homo sapiens), sequence (P08588 whole entry, looked up): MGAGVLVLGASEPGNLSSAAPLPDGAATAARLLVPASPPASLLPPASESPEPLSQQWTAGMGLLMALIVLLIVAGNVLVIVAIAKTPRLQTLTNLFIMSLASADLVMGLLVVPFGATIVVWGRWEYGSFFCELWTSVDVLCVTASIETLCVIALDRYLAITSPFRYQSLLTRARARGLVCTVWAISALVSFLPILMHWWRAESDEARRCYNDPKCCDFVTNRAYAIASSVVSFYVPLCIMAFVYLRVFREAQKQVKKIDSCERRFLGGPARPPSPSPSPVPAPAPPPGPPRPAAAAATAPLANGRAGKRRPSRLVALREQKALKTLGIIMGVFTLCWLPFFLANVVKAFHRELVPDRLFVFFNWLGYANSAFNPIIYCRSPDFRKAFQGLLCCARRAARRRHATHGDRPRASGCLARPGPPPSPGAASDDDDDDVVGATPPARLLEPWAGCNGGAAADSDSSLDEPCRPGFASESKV

[4] = molecular target: Beta-2 adrenergic receptor (Homo sapiens) (UniProt P07550); experiment: Displacement of [3H]dihydroalprenolol from human adrenergic beta-2 receptor expressed in CHO cells at 10 uM; format: cell-based
Beta-2 adrenergic receptor (Homo sapiens), sequence (P07550 whole entry, looked up): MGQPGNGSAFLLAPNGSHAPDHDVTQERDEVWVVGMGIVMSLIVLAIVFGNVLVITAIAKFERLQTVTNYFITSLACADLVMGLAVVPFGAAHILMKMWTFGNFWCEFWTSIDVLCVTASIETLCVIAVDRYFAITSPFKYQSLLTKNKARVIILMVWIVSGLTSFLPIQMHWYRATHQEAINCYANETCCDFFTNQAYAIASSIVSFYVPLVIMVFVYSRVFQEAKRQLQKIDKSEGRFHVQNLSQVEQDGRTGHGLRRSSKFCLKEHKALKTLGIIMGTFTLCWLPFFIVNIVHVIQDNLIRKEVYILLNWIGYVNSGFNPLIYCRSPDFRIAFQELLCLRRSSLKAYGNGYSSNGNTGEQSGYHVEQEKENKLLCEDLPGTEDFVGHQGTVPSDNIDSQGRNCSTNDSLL

[5] = molecular target: T2, Peroxisome proliferator-activated receptor alpha (Mus musculus) (UniProt P23204); experiment: Agonist activity at mouse PPARalpha receptor in monkey COS7 cells assessed as activation of CAT reporter gene at 50 uM by transactivation assay relative to Wy,14-643; format: functional, cell-based; details: COS-7
T2 sequence (whole entry): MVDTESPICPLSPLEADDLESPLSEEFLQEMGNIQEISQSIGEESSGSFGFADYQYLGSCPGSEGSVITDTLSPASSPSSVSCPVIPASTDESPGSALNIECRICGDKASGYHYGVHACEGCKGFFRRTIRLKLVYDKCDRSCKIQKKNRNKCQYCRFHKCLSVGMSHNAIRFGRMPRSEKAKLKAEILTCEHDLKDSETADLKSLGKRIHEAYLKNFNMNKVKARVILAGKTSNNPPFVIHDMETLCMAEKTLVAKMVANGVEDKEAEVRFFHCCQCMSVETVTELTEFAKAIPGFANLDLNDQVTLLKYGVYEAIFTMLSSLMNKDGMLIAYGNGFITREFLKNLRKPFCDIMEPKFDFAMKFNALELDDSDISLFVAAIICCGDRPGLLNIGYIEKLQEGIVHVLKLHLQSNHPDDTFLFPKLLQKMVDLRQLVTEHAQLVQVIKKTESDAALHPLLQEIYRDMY

[6] = molecular target: T2, Peroxisome proliferator-activated receptor alpha (Mus musculus); experiment: Agonist activity at mouse PPARalpha receptor in monkey COS7 cells assessed as activation of CAT reporter gene at 150 uM by transactivation assay relative to Wy,14-643; format: functional, cell-based; details: COS-7
[7] = molecular target: T2, Peroxisome proliferator-activated receptor alpha (Mus musculus); experiment: Agonist activity at mouse PPARalpha receptor in monkey COS7 cells assessed as activation of CAT reporter gene at 300 uM by transactivation assay relative to Wy,14-643; format: functional, cell-based; details: COS-7
[8] = molecular target: T2, Peroxisome proliferator-activated receptor alpha (Mus musculus); experiment: Agonist activity at mouse PPARalpha receptor in monkey COS7 cells assessed as activation of CAT reporter gene at 2 uM by transactivation assay relative to Wy,14-643; format: functional, cell-based; details: COS-7
[9] = molecular target: T1, Beta-3 adrenergic receptor
Description: Agonist activity at human adrenergic beta3 receptor expressed in CHO cells assessed as [3H]cAMP levels by radiolabeled ligand based assay

| Compound | EC50 [1] | Activity [2] | inhibition [3] | inhibition [4] | Activity [5] | Activity [6] | Activity [7] | Activity [8] | EC50 [9] |
| --- | --- | --- | --- | --- | --- | --- | --- | --- | --- |
| C[C@@H](Oc1ccc(CCNC[C@H](O)c2ccccc2)cc1)C(=O)O | 0.235 µM | – | 6% | 2% | 1.1% | 1.5% | 2.6% | – | – |
| CC(C)(Oc1ccc(CCNC[C@@H](O)c2ccccc2)cc1)C(=O)O | – | – | 13% | 5% | 1.7% | 1.5% | 2.1% | – | – |
| CC(C)(Oc1ccc(CCNCC(O)c2ccccc2)cc1)C(=O)O (racemic) | 0.0049 µM | – | 18% | 24% | 2% | 1.7% | 1.8% | – | – |
| CC(Oc1ccc(CCNCC(O)c2ccccc2)cc1)C(=O)O (racemic) | 0.0038 µM | – | 37% | 24% | 1.5% | 1.9% | 1.8% | – | – |
| Cc1cccc(Nc2cc(Cl)nc(SCC(=O)O)n2)c1C | – | – | – | – | – | – | – | 100% | – |

Continued, values first:

| EC50 [1] | Activity [2] | inhibition [3] | inhibition [4] | Activity [5] | Activity [6] | Activity [7] | Activity [8] | EC50 [9] | Compound |
| --- | --- | --- | --- | --- | --- | --- | --- | --- | --- |
| 0.136 µM | Active | 10% | 1% | 1.3% | 2% | 3.6% | – | – | C[C@@H](Oc1ccc(CCNC[C@@H](O)c2ccccc2)cc1)C(=O)O (single isomer, unassigned) |
| – | – | – | – | 12.6% | 11% | 89.9% | – | – | CCOC(=O)C(C)(C)Oc1ccc(Cl)cc1 |
| – | – | – | – | – | – | 86.5% | – | – | CC(C)(Oc1ccc(Cl)cc1)C(=O)O |
| 0.0027 µM | – | 28% | 1% | 1.6% | 1.8% | 1.5% | – | – | C[C@H](Oc1ccc(CCNC[C@H](O)c2ccccc2)cc1)C(=O)O (single isomer, unassigned) |
| 0.031 µM | – | – | – | – | – | – | – | 0.049 µM | CNC[C@H](O)c1ccc(O)c(O)c1 [EPINEPHRINE] |
| 0.181 µM | Active | 14% | 9% | 1% | 1% | 1.8% | – | – | C[C@H](Oc1ccc(CCNC[C@@H](O)c2ccccc2)cc1)C(=O)O |
| – | – | 8% | 1% | 1.3% | 1.5% | 1.5% | – | – | CC(C)(Oc1ccc(CCNC[C@H](O)c2ccccc2)cc1)C(=O)O |
